The source of these data is article PMC12111564, “Extended Family of Thiophosphoryl-Appended Pd(II) Pincer Complexes with a Deprotonated Amide Core: Synthesis and Biological Evaluation” (International Journal of Molecular Sciences, 2025).

The subject of data set [1] is Groenewaldozyma auringiensis (VKM Y-2927). As to the kind of experiment: Agar well diffusion, G. auringiensis. In kind it is cell-based. The method, then: (§1) The microbial strains Bacillus subtillis (VKM B-501), Micrococcus luteus (VKM Ac-2230), and Groenewaldozyma auringiensis (VKM Y-2927) were used for antimicrobial activity tests. All strains were obtained from the All-Russian Collection of Microorganisms (VKM) at the Skryabin Institute of Biochemistry and Physiology of Microorganisms, Pushchino Scientific Center of Biological Research. B. subtilis and M. luteus were grown on the following medium (g/L): aminopeptide 60 mL; tryptone 5.0 g; yeast extract 1.0 g; soybean extract 30 mL; bacto-agar 15.0 g; final pH 7.2. G. auringiensis was grown on malt extract medium containing the following medium (g/L): malt extract 12.75; dextrin 2.75; glycerol 2.35; gelatin peptone 0.78; bacto-agar 15; final pH 5.4. The antimicrobial activity of ligand 17 and its cyclopalladated derivative 18 (both in the racemic form) was studied by the agar well diffusion method. The overnight grown culture of each strain (100 µL) was applied to the surface of the solid medium, then spread on agar plates using a glass spreader, and left for 30 min. The wells were cut in the culture plates using a sterilized glass tube (4 mm in diameter), and each compound sample was dissolved in DMSO to a final concentration of 0.25 or 2.5 mM (10 µL) and was placed in each well. After this, the plates were kept at room temperature for 3 h to improve the diffusion of the compounds and incubated at 28 °C for 24 h. DMSO (15%) was used as a negative control, while kanamycin (50 mg/mL) was used as a positive control. The antimicrobial activity was determined by measuring the inhibition zone around each well as a mean of three replicates.
A general note: A growth-free zone around the sample is the usual read-out of agar diffusion tests.

The test system of data set [2] is Micrococcus luteus (VKM Ac-2230). As to the kind of experiment: Agar well diffusion, M. luteus. In kind it is cell-based. Here is the method:
as §1

In data set [3] the test system is Bacillus subtillis (VKM B-501). As to the kind of experiment: Agar well diffusion, B. subtillis. In kind it is cell-based. The method, then:
as §1

Data set [4] relates to human colorectal carcinoma (HCT116). Nature of the data set: MTT cytotoxicity assay, HCT116. It is filed as cell-based. Conditions: 48 h exposure, read-out: IC50 ± SD, HCT116. The method, then:
(§2) The cytotoxic activity of the complexes obtained was screened against several human solid and hematopoietic cancer cell lines using the conventional MTT assay. To evaluate their selectivity for cancerous over non-cancerous cells, analogous tests were performed with pseudonormal human embryonic kidney (HEK293) and breast epithelial (HBL100) cell lines.
(§3) The cytotoxicity of the compounds obtained was investigated on human colorectal carcinoma (HCT116), breast cancer (MCF7), prostate adenocarcinoma (PC3), glioblastoma (U251), ovarian adenocarcinoma (Scov3), chronic myelogenous leukemia (K562 and K562/iS9), multiple plasmacytoma (AMO1), and acute lymphoblastic leukemia (H9) cell lines, as well as human embryonic kidney (HEK293) and mammary epithelial (HBL100 and HBL100/Dox) cells used as non-cancerous cell lineages. All the cell lines were obtained from American Type Culture Collection (ATCC). The tested compounds were initially dissolved in DMSO. Cisplatin was obtained from a commercial source (as an infusion concentrate in natural saline solution). The experiments were performed using the conventional MTT assay (ICN Biomedicals, Eschwege, Germany) according to the previously published procedure.
On the technique in general: Formazan colour is commonly taken as a measure of viable cells.

The test system of data set [5] is acute lymphoblastic leukemia (H9). Nature of the data set: MTT cytotoxicity assay, H9. It is filed as cell-based, human. Conditions: 48 h exposure, read-out: IC50 ± SD, H9. Here is the method: as §2
as §3, with “Cisplatin was obtained from a commercial source (as an infusion concentrate in natural saline solution).” left out

In data set [6] the test system is doxorubicin-resistant subline of chronic myelogenous leukemia cells (K562/iS9). Nature of the data set: MTT cytotoxicity assay, K562/iS9. It is filed as cell-based, human. Conditions: 48 h exposure, read-out: IC50 ± SD, K562/iS9. Here is the method:
as §2, §3

Data set [7] has as its system multiple plasmacytoma (AMO1). Nature of the data set: MTT cytotoxicity assay, AMO1. It is filed as cell-based, human. Conditions: 48 h exposure, read-out: IC50 ± SD, AMO1. Here is the method: as §2, §3
In a further data set the test system is breast cancer (MCF7). Nature of the data set: MTT cytotoxicity assay, MCF7. It is filed as cell-based, human. To be noted: 48 h exposure, read-out: IC50 ± SD, MCF7. The method, then:
as §2, §3

The test system of data set [8] is doxorubicin-resistant mammary epithelial cells HBL100/Dox. As to the kind of experiment: MTT cytotoxicity assay, HBL100/Dox. In kind it is cell-based, human. Conditions: 48 h exposure, doxorubicin-resistant clone, read-out: IC50 ± SD, HBL100/Dox. The method, then:
as §2, §3

The test system of data set [9] is chronic myelogenous leukemia (K562). Nature of the data set: MTT cytotoxicity assay, K562. In kind it is cell-based, human. Conditions: 48 h exposure, read-out: IC50 ± SD, K562. Here is the method:
as §2, §3

The test system of data set [10] is prostate adenocarcinoma (PC3). As to the kind of experiment: MTT cytotoxicity assay, PC3. In kind it is cell-based, human. To be noted: 48 h exposure, read-out: IC50 ± SD, PC3. The method, then: as §2, §3
The subject of data set [11] is mammary epithelial cells HBL100. As to the kind of experiment: MTT cytotoxicity assay, HBL100. It is filed as cell-based, human. To be noted: 48 h exposure, non-cancerous cells, read-out: IC50 ± SD, HBL100. Here is the method: as §2, §3
Data set [12] deals with human embryonic kidney (HEK293). As to the kind of experiment: MTT cytotoxicity assay, HEK293. It is filed as cell-based. To be noted: 48 h exposure, non-cancerous cells, read-out: IC50 ± SD, HEK293. Here is the method:
as §2, §3

For data set [13], the system named is doxorubicin-resistant subline of chronic myelogenous leukemia cells (K562/iS9). To be noted: cited from earlier work.
In data set [14] the test system is doxorubicin-resistant mammary epithelial cells HBL100/Dox. Conditions: cited from earlier work.
Data set [15] in a line: Stability in DMSO solution by 31P NMR monitoring. It is filed as physicochemical. To be noted: at least for several days. An excerpt: The identities and structures of both free amides 2–8 and their cyclopalladated derivatives were unambiguously confirmed based on the IR and multinuclear NMR spectroscopic data (including different 2D NMR techniques), as well as elemental analyses, which are presented in detail in Section 3 (Materials and Methods) and Figures S1–S31 in the Supporting Information (SI). The realization of metalation of the central secondary amide unit in the resulting complexes was supported by the lack of NH proton singlets in the ^1H NMR spectra, as well as the absence of amide II and amide A bands in the IR spectra. The coordination of the thiophosphoryl pendant arm was evidenced by a strong downfield shift of the phosphorus resonance (ΔδP = 8.1–17.4 ppm) and the displacement of the P=S bond stretches towards lower frequencies, which reached up to 65 cm^−1. The coordination of the additional N- or S-donor unit was indirectly indicated by considerable shifts of the signals of CH/CH3 protons or quaternary carbon nuclei located in the close proximity to the heteroatom (for example, ΔδH for the methyl substituent in the thioether group of 13a,b was more than 0.65 ppm, while a coordination shift of the proton signal, corresponding to the CH unit adjacent to the nitrogen atom of the pyridine ring of 9, composed 0.45 ppm).

The mark [16] stands for this setting: agar well diffusion, 0.25 or 2.5 mM, racemic form.

In the case of `CC(C)C(NC(=O)c1ccccn1)P(=S)(c1ccccc1)c1ccccc1` (stereo not drawn) [Compound 17], the “inhibitory effect on microorganisms, G. auringiensis” value in data set [1] (setting [16]) is reported as “did not exert any inhibitory effect”. The “inhibitory effect on microorganisms, M. luteus” value in [2] (setting [16]) is given as “did not exert any inhibitory effect”. In data set [3] (setting [16]), the “inhibitory effect on microorganisms, B. subtillis” value was “did not exert any inhibitory effect”.
Take `C[S+]1CC(=O)[N]2C(c3ccccc3)P(c3ccccc3)(c3ccccc3)=[S+][Pd-2]21[Cl]` (racemic) [Compound 13a, [κ^3-S,N,S-(L)Pd(II)Cl] complex]: the IC50 is 17 ± 2 µM in data set [4]; 4 ± 0.6 µM in [5]; 15.2 ± 1.8 µM in data set [6]; 4.2 ± 0.3 µM in [7]; 31 ± 6 µM with breast cancer (MCF7); 54 ± 5.6 µM in data set [8]. Besides, the IC50 in data set [9] was 14.2 ± 2.2 µM; in data set [10] it was 30 ± 2.5 µM; in data set [11], 32 ± 6 µM; in data set [12] it was 22 ± 6 µM.
Turning to `C[S+]1CC(=O)[N]2CP(c3ccccc3)(c3ccccc3)=[S+][Pd-2]21[Cl]` (stereo not drawn) [Compound 13b, [κ^3-S,N,S-(L)Pd(II)Cl] complex], the IC50 in data set [4] was 23 ± 7 µM; in the data set on breast cancer (MCF7), 40 ± 5 µM; in data set [8], above 60 µM; in data set [10], 30 ± 2 µM; in data set [11] it was 52 ± 4 µM; in data set [12], 34 ± 2 µM.
As for `NC[C@H]1O[C@H](O[C@H]2[C@H](O)[C@@H](O[C@H]3O[C@H](CO)[C@@H](O)[C@H](N)[C@H]3O)[C@H](N)C[C@@H]2N)[C@H](O)[C@@H](O)[C@@H]1O` [Km, kanamycin, reference compound], the “Inhibition Zone, G. auringiensis (VKM Y-2927)” value in data set [1] (50 mg/mL, positive control) is on record as 0 mm. For the same compound, the “Inhibition Zone, M. luteus (VKM Ac-2230)” value in data set [2] (50 mg/mL, positive control) was 15.0 ± 1.0 mm. Further, the “Inhibition Zone, B. subtillis (VKM B-501)” value in [3] (50 mg/mL, positive control) stood at 10.0 ± 0.8 mm.
Turning to `N.N.[Cl][Pt][Cl]` [cisplatin, reference compound], the IC50 was found to be 18 ± 2 µM in data set [4]; 16 ± 2 µM in [6]; 3.2 ± 0.6 µM in [7]; 25 ± 4 µM in the data set with breast cancer (MCF7); 23.6 ± 3.6 µM in [8]; 15.5 ± 0.5 µM in data set [9]. Moreover, the IC50 worked out at 16 ± 3 µM in data set [10], 14.6 ± 3.6 µM in data set [11] and 12.5 ± 1.5 µM in [12].
On to `O=C1c2cccc3ccc[n+](c23)[Pd-2]2([Cl])[S+]=P(c3ccccc3)(c3ccccc3)C[N]12` (stereo not drawn) [Compound 11, [κ^3-S,N,N-(L)Pd(II)Cl] complex], for which the IC50 in data set [4] came out at 18 ± 2 µM; in the data set with breast cancer (MCF7) it was 46 ± 4 µM; in data set [8], 41 ± 1 µM; in data set [10], 31 ± 1 µM; in data set [11], 29 ± 5 µM; in data set [12] it was 41 ± 4 µM.
As for `COc1cccc2c1C(=O)c1c(O)c3c(c(O)c1C2=O)C[C@@](O)(C(=O)CO)C[C@@H]3O[C@H]1C[C@H](N)[C@H](O)[C@H](C)O1` [doxorubicin], in data set [13], the “factor of decrease in efficiency, K562/iS9 vs parental K562” value is 20. For the same compound, the “times less active against the resistant clone (HBL100/Dox vs HBL100)” value in data set [14] is “more than 80 times”.
Turning to `C[S+]1c2ccccc2C(=O)[N]2C(c3ccccc3)P(c3ccccc3)(c3ccccc3)=[S+][Pd-2]21[Cl]` (racemic) [Compound 14, [κ^3-S,N,S-(L)Pd(II)Cl] complex], the IC50 in data set [4] came out at 4.5 ± 1.1 µM; in [5], 2.3 ± 0.5 µM; in data set [6], 1.7 ± 0.2 µM; in data set [7] it was 1.2 ± 0.3 µM; in the data set on breast cancer (MCF7), 9.2 ± 0.9 µM; in data set [8], 2.1 ± 0.3 µM. Moreover, the IC50 in data set [9] turned out to be 2.1 ± 0.2 µM; in data set [10], 4.2 ± 1.4 µM; in data set [11], 8.4 ± 0.5 µM; in data set [12], 4.9 ± 1.5 µM.
As for `O=C1c2ccc3ccccc3[n+]2[Pd-2]2([Cl])[S+]=P(c3ccccc3)(c3ccccc3)C(c3ccccc3)[N]12` (racemic) [Compound 10a, [κ^3-S,N,N-(L)Pd(II)Cl] complex], the IC50 was 22 ± 2 µM in data set [4]; above 65 µM with breast cancer (MCF7); above 60 µM in data set [8]; 33 ± 3 µM in data set [10]; above 60 µM in [11]; 15 ± 4 µM in data set [12].
For `O=C1c2ccc3ccccc3[n+]2[Pd-2]2([Cl])[S+]=P(c3ccccc3)(c3ccccc3)C[N]12` (stereo not drawn) [Compound 10b, [κ^3-S,N,N-(L)Pd(II)Cl] complex], the IC50 in [4] was determined as 14 ± 4 µM; in the data set with breast cancer (MCF7), 31 ± 2 µM; in [8], 46 ± 1.4 µM; in data set [10] it was 23 ± 1 µM; in data set [11], 34.2 ± 2.8 µM; in [12] it was 20 ± 4 µM. Moreover, the “stability in solution (DMSO)” value in [15] is on record as “stable in solution”.
For the compound `O=C1c2sc3ccccc3[n+]2[Pd-2]2([Cl])[S+]=P(c3ccccc3)(c3ccccc3)C(c3ccccc3)[N]12` (racemic) [Compound 12, [κ^3-S,N,N-(L)Pd(II)Cl] complex], the IC50 in data set [4] was 11.3 ± 3.1 µM; in data set [5], 2.2 ± 0.7 µM; in data set [6], 2 ± 0.4 µM; in data set [7], 3.7 ± 0.7 µM; in the data set with breast cancer (MCF7) it was 19 ± 4.2 µM; in data set [8], 6.7 ± 1.5 µM. For the same compound, the IC50 in data set [9] was 4.2 ± 0.8 µM; in data set [10], 10 ± 2.8 µM; in data set [11], 12 ± 3.5 µM; in [12], 6.5 ± 2.2 µM.
